Results from patent US20250268884A1, “Deuterated Domperidone for Treating Gastroparesis” (CinDome Pharma, Inc., priority 2022, published 2025).

Tested on: adults with idiopathic or diabetic gastroparesis
Assay: Safety: adverse events, laboratory values, vital signs, Phase 2a
[1] = 5 mg BID (N = 9), Safety Population

Method: Safety was evaluated through assessments of Aes, vital signs, physical examinations, clinical laboratory evaluations (including prolactin), and ECG findings. Additionally, a single, optional PGx blood sample may have been collected at any time during the subject's participation in the study.
Safety variables included Aes, clinical laboratory results (including prolactin), vital signs, ECGs, and physical examination findings.

## [2H]c1c([2H])c([2H])c2c([nH]c(=O)n2CCCN2CCC(n3c(=O)[nH]c4cc(Cl)ccc43)CC2)c1[2H] [Deudomperidone, 1-{3-[4-(5-chloro-2-oxo-2,3-dihydro-1H-1,3-benzodiazol-1-yl)piperidin-1yl]propyl}-2,3-dihydro(4,5,6,7-D4)-1H-1,3-benzodiazol-2-one]
5 mg BID
  TEAEs reported: 1 TEAE
  other TEAE: abdominal pain lower: 1 subject each
  other study drug-related TEAE: abdominal pain lower: 1 subject each
  study drug-related TEAEs reported: 1 TEAE
  subjects with study drug-related TEAEs: 1 (11.1%) subjects (%)
5 mg BID (N = 9)
  Study drug-related TEAE Abdominal pain lower, %: (11.1) %
  Study drug-related TEAE Blood creatine phosphokinase increased, %: (0.0) %
  Study drug-related TEAE Cardiac disorders, %: (0.0) %
  Study drug-related TEAE Diarrhoea, %: (0.0) %
  Study drug-related TEAE Ear and labyrinth disorders, %: (0.0) %
  Study drug-related TEAE Electrocardiogram QT prolonged, %: (0.0) %
  Study drug-related TEAE Gastrointestinal disorders, %: (11.1) %
  Study drug-related TEAE Headache, %: (0.0) %
  Study drug-related TEAE Investigations, %: (0.0) %
  Study drug-related TEAE Nausea, %: (0.0) %
  Study drug-related TEAE Nervous system disorders, %: (0.0) %
  Study drug-related TEAE Palpitations, %: (0.0) %
  Study drug-related TEAE Tinnitus, %: (0.0) %
  Subjects with any TEAEs, %: 11.1%
  Subjects with any TEAEs, e (events): 1
  Subjects with any study drug-related TEAE, %: 11.1%
  Subjects with any study drug-related TEAE, e (events): 1
  TEAE Abdominal pain lower, %: (11.1) %
  TEAE Arthralgia, %: (0.0) %
  TEAE Back pain, %: (0.0) %
  TEAE Blood creatine phosphokinase increased, %: (0.0) %
  TEAE Cardiac disorders, %: (0.0) %
  TEAE Constipation, %: (0.0) %
  TEAE Decreased appetite, %: (0.0) %
  TEAE Diarrhoea, %: (0.0) %
  TEAE Dyspepsia, %: (0.0) %
  TEAE Ear and labyrinth disorders, %: (0.0) %
  TEAE Electrocardiogram QT prolonged, %: (0.0) %
  TEAE Gastrointestinal disorders, %: (11.1) %
  TEAE Headache, %: (0.0) %
  TEAE Hypoglycaemia, %: (0.0) %
  TEAE Infections and infestations, %: (0.0) %
  TEAE Investigations, %: (0.0) %
  TEAE Metabolism and nutrition disorders, %: (0.0) %
  TEAE Musculoskeletal and connective tissue disorders, %: (0.0) %
  TEAE Nausea, %: (0.0) %
  TEAE Nervous system disorders, %: (0.0) %
  TEAE Palpitations, %: (0.0) %
  TEAE Sinusitis, %: (0.0) %
  TEAE Tinnitus, %: (0.0) %
  TEAE Vomiting, %: (0.0) %
[1]
  Any Aes, % of subjects: (11.1) %
  Any Aes, n subjects: 1
  Any TEAEs by maximum severity: Mild, % of subjects: (11.1) %
  Any TEAEs by maximum severity: Mild, n subjects: 1
  Any TEAEs by maximum severity: Moderate, % of subjects: (0.0) %
  Any TEAEs by maximum severity: Moderate, n subjects: 0
  Any TEAEs by maximum severity: Severe, % of subjects: (0.0) %
  Any TEAEs by maximum severity: Severe, n subjects: 0
  Any TEAEs leading to death, % of subjects: (0.0) %
  Any TEAEs leading to death, n subjects: 0
  Any TEAEs leading to discontinuation, % of subjects: (0.0) %
  Any TEAEs leading to discontinuation, n subjects: 0
  Any TEAEs, % of subjects: 11.1%
  Any TEAEs, e (number of events): 1
  Any TEAEs, n subjects: 1
  Any serious TEAEs, % of subjects: (0.0) %
  Any serious TEAEs, n subjects: 0
  Any study drug-related TEAEs by maximum severity: Mild, % of subjects: (11.1) %
  Any study drug-related TEAEs by maximum severity: Mild, n subjects: 1
  Any study drug-related TEAEs by maximum severity: Moderate, % of subjects: (0.0) %
  Any study drug-related TEAEs by maximum severity: Moderate, n subjects: 0
  Any study drug-related TEAEs by maximum severity: Severe, % of subjects: (0.0) %
  Any study drug-related TEAEs by maximum severity: Severe, n subjects: 0
  Any study drug-related TEAEs leading to discontinuation, % of subjects: (0.0) %
  Any study drug-related TEAEs leading to discontinuation, n subjects: 0
  Any study drug-related TEAEs, % of subjects: (11.1) %
  Any study drug-related TEAEs, n subjects: 1
  Any study drug-related serious TEAEs, % of subjects: (0.0) %
  Any study drug-related serious TEAEs, n subjects: 0
5 mg BID, Safety Population
  subjects who experienced a TEAE: 1 (11.1%) subjects (%)
10 mg BID
  TEAE diarrhoea: 3 (10.0%) subjects (%)
  TEAE electrocardiogram QT prolonged: 1 (3.3%) subjects (%)
  TEAE hypoglycaemia: 1 (3.3%) subjects (%)
  TEAEs reported: 11 TEAEs
  other TEAEs, each: nausea, vomiting, blood creatine phosphokinase increased, decreased appetite, palpitations, tinnitus: 1 subject each
  other study drug-related TEAEs, each: nausea, blood creatine phosphokinase increased, palpitations, tinnitus: 1 subject each
  study drug-related TEAE diarrhoea: 2 (6.7%) subjects (%)
  study drug-related TEAEs reported: 6 TEAEs
  subjects with study drug-related TEAEs: 4 (13.3%) subjects (%)
10 mg BID (N = 30)
  Study drug-related TEAE Abdominal pain lower, %: (0.0) %
  Study drug-related TEAE Blood creatine phosphokinase increased, %: (3.3) %
  Study drug-related TEAE Cardiac disorders, %: (3.3) %
  Study drug-related TEAE Diarrhoea, %: (6.7) %
  Study drug-related TEAE Ear and labyrinth disorders, %: (3.3) %
  Study drug-related TEAE Electrocardiogram QT prolonged, %: (0.0) %
  Study drug-related TEAE Gastrointestinal disorders, %: (10.0) %
  Study drug-related TEAE Headache, %: (0.0) %
  Study drug-related TEAE Investigations, %: (3.3) %
  Study drug-related TEAE Nausea, %: (3.3) %
  Study drug-related TEAE Nervous system disorders, %: (0.0) %
  Study drug-related TEAE Palpitations, %: (3.3) %
  Study drug-related TEAE Tinnitus, %: (3.3) %
  Subjects with any TEAEs, %: 20.0%
  Subjects with any TEAEs, e (events): 11
  Subjects with any study drug-related TEAE, %: 13.3%
  Subjects with any study drug-related TEAE, e (events): 6
  TEAE Abdominal pain lower, %: (0.0) %
  TEAE Arthralgia, %: (0.0) %
  TEAE Back pain, %: (0.0) %
  TEAE Blood creatine phosphokinase increased, %: (3.3) %
  TEAE Cardiac disorders, %: (3.3) %
  TEAE Constipation, %: (0.0) %
  TEAE Decreased appetite, %: (3.3) %
  TEAE Diarrhoea, %: (10.0) %
  TEAE Dyspepsia, %: (0.0) %
  TEAE Ear and labyrinth disorders, %: (3.3) %
  TEAE Electrocardiogram QT prolonged, %: (3.3) %
  TEAE Gastrointestinal disorders, %: (13.3) %
  TEAE Headache, %: (0.0) %
  TEAE Hypoglycaemia, %: (3.3) %
  TEAE Infections and infestations, %: (0.0) %
  TEAE Investigations, %: (6.7) %
  TEAE Metabolism and nutrition disorders, %: (6.7) %
  TEAE Musculoskeletal and connective tissue disorders, %: (0.0) %
